{"source": "patent US20120015953A1", "about": "“METHODS AND COMPOSITIONS FOR THE TREATMENT OF ALLERGY” (priority 2010, published 2012)", "key": {"[1]": {"tested_on": "tissue eosinophil peroxidase (EPO)", "assay": "late phase allergic response, conjunctival tissue eosinophil peroxidase (EPO) 24 h after challenge", "format": "in vivo, guinea pig", "conditions": "for inhibition of late phase allergic response: compound alone, EPO 24 hours after challenge (FIGS. 2, 5); for inhibition of late phase response with concomitant olopatadine: concomitant dosing with 0.2% olopatadine (FIGS. 2, 5)", "method": "(§1) H1 and H4 antagonists were evaluated using an in vivo assay to determine the effect of the H4 antagonist on a co-administered H1 antagonist. Male Hartley VAF outbred guinea pigs were passively sensitized to ovalbumin by a single OD subconjunctival injection of undiluted guinea pig anti-ovalbumin antiserum 24 hours before OD topical challenge with 500 μg ovalbumin in saline. Control animals were injected with saline only and challenged with ovalbumin. To determine acute phase drug efficacy, 30 min after challenge animals were clinically scored by a masked observer for severity of signs of conjunctivitis based on a standard scale.\n(§2) Test compounds were administered topically 1 hour prior to challenge. Twenty-four hours after challenge, animals were euthanized and conjunctivae were harvested for determination of tissue eosinophil peroxidase (EPO) concentration as a marker of allergic inflammation and late phase effects. Homogenates of freshly collected tissues were prepared by shaking the tissues in 2 mL round-bottom tubes containing 0.5 mL of homogenization buffer (50 mM Tris HCl, pH 8.0, 6 mM KBr) and one 5-mm stainless steel bead on a Qiagen TissueLyser at 30 Hz for 5 min. Homogenates were frozen and thawed once, then centrifuged at 10,000 rpm for 5 min. EPO activity in supernatants was measured by reacting diluted homogenates with a solution of 6 mM o-phenylenediamine substrate and 8.8 mM H2O2 in homogenization buffer for 3 min. The reaction was stopped with 4M H2SO4 and absorbances were measured at […] on a spectrophotometry plate reader. Total EPO in samples was calculated from a standard curve of recombinant human EPO in each assay. EPO activity was normalized to total protein concentration (Pierce BCA assay) in supernatants. Background EPO activity was determined from the unsensitized, antigen-challenged control group. Percent inhibition was calculated from the sensitized, antigen-challenged, vehicle-treated control group in each experiment. Ovalbumin-injected animals dosed topically with 0.1% w/v dexamethasone (dex) served as positive control. Groups were compared by ANOVA with Dunnett's or Tukey's post-hoc tests where appropriate with significance assigned at the 95% confidence level."}, "[2]": {"tested_on": "passively sensitized guinea pigs", "assay": "acute phase clinical score of conjunctivitis, passively sensitized guinea pigs challenged with ovalbumin", "format": "in vivo, guinea pig", "conditions": "for effect on olopatadine's inhibition of the acute clinical score: H4 antagonist topical once daily, 0.2% olopatadine 5 minutes later, antigen challenge 60 minutes after dose, scored 30 min after challenge (FIGS. 1, 4); for effect on olopatadine's acute phase effects under different dosing regimens: administered before, after, or in the same drop as 0.2% olopatadine (FIGS. 3, 6); for effect on acute phase clinical score on their own: compound alone, topical, 1 hour prior to challenge", "method": "as §1, §2"}}}
{"smiles": "CN1CCN(c2nc3ccc(C(F)(F)F)cc3n3cnnc23)CC1", "note": "[Compound 1, 4-(4-methylpiperazin-1-yl)-8-(trifluoromethyl)-[1,2,4]triazolo[4,3-a]quinoxaline]", "values": [{"measurement": "inhibition of late phase allergic response", "setting": "[1]", "value": "very good inhibitors of late phase allergic response"}, {"measurement": "inhibition of late phase response with concomitant olopatadine", "setting": "[1]", "value": "slight increase in the inhibition of late phase response"}, {"measurement": "effect on olopatadine's inhibition of the acute clinical score", "setting": "[2]", "value": "dose dependent effect on the inhibition of the acute clinical score relative to olopatadine alone"}, {"measurement": "effect on olopatadine's acute phase effects under different dosing regimens", "setting": "[2]", "value": "reduction of olopatadine's acute phase effects and dose dependency"}, {"measurement": "effect on acute phase clinical score on their own", "setting": "[2]", "value": "Neither Compound 1 nor Compound 2 demonstrate any effect on acute phase clinical score on their own"}]}
{"smiles": "Clc1ccc2nc(N3CCNCC3)c3nnnn3c2c1", "note": "[Compound 2, 8-chloro-4-(piperazin-1-yl)tetrazolo[1,5-a]quinoxaline]", "values": [{"measurement": "inhibition of late phase allergic response", "setting": "[1]", "value": "very good inhibitors of late phase allergic response"}, {"measurement": "inhibition of late phase response with concomitant olopatadine", "setting": "[1]", "value": "slight increase in the inhibition of late phase response"}, {"measurement": "effect on olopatadine's inhibition of the acute clinical score", "setting": "[2]", "value": "does not show suppression of olopatadine's acute phase effects"}, {"measurement": "effect on olopatadine's acute phase effects under different dosing regimens", "setting": "[2]", "value": "These effects on acute phase response are not seen"}, {"measurement": "effect on acute phase clinical score on their own", "setting": "[2]", "value": "Neither Compound 1 nor Compound 2 demonstrate any effect on acute phase clinical score on their own"}]}
